As a reminder, the AC50 is the concentration giving half of the maximal activity seen.

The assay deals with α7 integrin promoter. Description: muscle cell-based assay: α7βgal+/− myoblasts/myotubes, LacZ reporter, β-galactosidase cleavage of FDG. Set-up: species or system mouse. Conditions: for AC50: Mus musculus, read-out: Fit Log AC50 (converted). How it is done: An α7 integrin null mouse was produced in which exon 1 of the gene encoding the α7 integrin was replaced by the LacZ reporter. In these mice, all the transcriptional regulatory elements of the α7 integrin promoter were retained, allowing β-galactosidase to report expression of 7 integrin. A primary myoblast cell line (designated α7βgal^+/−) isolated from 10 day old α7^+/− pups were analyzed for the ability of β-galactosidase to report α7 integrin expression. α7βgal^+/− myoblasts were differentiated and subjected to X-gal staining and western analysis (FIGS. 1A and 1B).
The activity of the α7 integrin promoter was measured by β-galactosidase cleavage of the non-fluorescent compound fluorescein di-β-D-galactopyranoside (FDG) to fluorescein. This assay was used to screen compound libraries to identify molecules that up-regulate α7 integrin expression in muscle.
Also evaluated was the effect of various isoforms of laminin and the ligand for α7β1 integrin on integrin expression. Positive hits were subjected to dose-response analysis, western analysis and a myostatin counterscreen (a negative regulator of muscle growth).

Where [1] appears, read: Table 12, log of AC50, given with negative sign, unit of AC50 not given.
The mark [2] stands for this setting: Table 12, fitted activity at zero concentration.
Where [3] appears, read: Table 12 Compound data, concentration-response curve fit.
Where [4] appears, read: Table 12, fitted activity at infinite concentration.

Read-outs that look alike come from different tables or passages of the source.

With `O=C(O)CCn1cc(/C=C2/NC(=S)N(c3ccccc3)C2=O)c(-c2ccccc2)n1` [Compound 65], the “Curve Description” value is “Partial”, the “Fit Curve Class” value was 2.1, the “Fit HillSlope” value worked out at 4.095 and the “Fit Infinite Activity [%]” value is 501.215%. Further, the “Fit Log AC50” value is −4.7, the “Fit Zero Activity [%]” value is recorded as 9.2299% and the Score worked out at 45.
Turning to `CCc1nnc(NC(=O)c2ccc(S(=O)(=O)NCC(C)C)cc2)s1` [Compound 66], the AC50 under setting [1] was 12.6 µM. For the same molecule, for the setting “Table 12, curve fit”, the “Fit HillSlope” value came to 4.5045. The “Fit Zero Activity [%]” value under setting [2] came to 11.9175%. Also, under “Table 12, key not given”, the “Fit Curve Class” value is reported as 2.1. Also, under setting [3], the Score was 45.
`CC1CCCCC12NC(=O)N(CC(=O)OCc1cccc(F)c1)C2=O` (stereo not shown) [Compound 67]: under setting [1], the AC50 was 10 µM. Further, the “Fit HillSlope” value (Table 12, curve fit) is on record as 1.4163. For the same molecule, the “Fit Zero Activity [%]” value under setting [2] is reported as 4.7344%. The “Fit Curve Class” value (Table 12, key not given) amounted to 2.1. The same molecule gave a Score under setting [3] of 44.
With `CNc1nnc(SCC(=O)c2cc(C)n(C3CC3)c2C)s1` [Compound 68], the AC50 under setting [1] was 12.6 µM. Also, under “Table 12, curve fit”, the “Fit HillSlope” value came out at 4.5045. Also, under setting [2], the “Fit Zero Activity [%]” value is −17.9914%. In addition, the “Fit Curve Class” value (Table 12, key not given) stood at 2.1. The Score under setting [3] turned out to be 44.
In the case of `CCCCNc1nnc(SCC(=O)c2c(N)n(CCC)c(=O)[nH]c2=O)s1` [Compound 69], the half-maximal activity concentration (AC50) under setting [1] was 3.98 µM. Besides, the “Fit HillSlope” value (Table 12, curve fit) was 1.3987. The “Fit Zero Activity [%]” value under setting [2] is −2.436%. Further, under “Table 12, key not given”, the “Fit Curve Class” value came out at 2.1. Further, the Score under setting [3] is 44.
Consider `C/C(=N\OCC(=O)OC(C)C(=O)Nc1ccc(C(N)=O)cc1)c1ccc2c(c1)OCO2` (stereo not shown) [Compound 70], for which the AC50 under setting [1] was 4.47 µM. The “Fit HillSlope” value (Table 12, curve fit) came to 1.2876. For the same molecule, the “Fit Zero Activity [%]” value under setting [2] is −19.1057%. In addition, the “Fit Curve Class” value (Table 12, key not given) stood at 2.1. Under setting [3], this molecule returned a Score of 44.
In the case of `COc1cc(C(C(=O)NC2CCCCC2)N(C(=O)c2snc(C(N)=O)c2N)c2ccc(C)cc2)ccc1O` (stereo not shown) [Compound 71], the half-maximal activity concentration (AC50) under setting [1] is 7.94 µM. For the same molecule, the “Fit HillSlope” value (Table 12, curve fit) is listed as 1.3443. Besides, the “Fit Zero Activity [%]” value under setting [2] is listed as −2.1806%. Further, for the setting “Table 12, key not given”, the “Fit Curve Class” value was found to be 2.1. The same molecule came in with a Score under setting [3] of 44.
Regarding `CC1CCN(S(=O)(=O)c2ccc(S(=O)(=O)N3CCCC3)cc2)CC1` [Compound 72], the concentration at half-maximal activity (AC50) under setting [1] is 8.91 µM. Moreover, under “Table 12, curve fit”, the “Fit HillSlope” value is listed as 2.3332. The “Fit Zero Activity [%]” value under setting [2] is recorded as −2.3089%. Moreover, the “Fit Curve Class” value (Table 12, key not given) was 2.1. The molecule further came in with a Score under setting [3] of 44.
The like results for `CCC(CC)C(=O)Nc1c(C(=O)N2CCN(c3ccccc3)CC2)oc2ccccc12` [Compound 73] were, in that order, 12.6 µM, 4.095, 16.3113%, 2.1 and 44.
In the case of `COc1ccc(CCNC(=O)c2nn(C)c3c2CS(=O)(=O)c2ccccc2-3)cc1OC` [Compound 74], the AC50 under setting [1] is 4.47 µM. Besides, for the setting “Table 12, curve fit”, the “Fit HillSlope” value came to 1.8617. Moreover, the “Fit Zero Activity [%]” value under setting [2] was −23.105%. Further, the “Fit Curve Class” value (Table 12, key not given) worked out at 2.1. In addition, under setting [3], the Score is 44.
For `COc1ccc(Nc2ncnc3ccc(Br)cc23)cc1OC` [Compound 75], in that order: 3.98 µM, 1.5579, 26.9551%, 2.2 and 44.
For `CCOc1ccc2ccccc2c1C1NC(=O)N(C)C(C)=C1C(=O)OCCOC` (stereo not shown) [Compound 76], under setting [1], the AC50 was 6.31 µM. The “Fit HillSlope” value (Table 12, curve fit) came to 1.3443. Besides, the “Fit Zero Activity [%]” value under setting [2] is −8.518%. The “Fit Curve Class” value (Table 12, key not given) was 2.1. Under setting [3], this molecule gave a Score of 44.
`Cc1ccc(NC(=O)NCc2nc3ccccc3n2C)cc1` [Compound 77]: the AC50 under setting [1] is 4.47 µM. Further, the “Fit HillSlope” value (Table 12, curve fit) was found to be 1.8617. In addition, the “Fit Zero Activity [%]” value under setting [2] is listed as −34.2328%. Besides, the “Fit Curve Class” value (Table 12, key not given) was found to be 2.1. Under setting [3], this molecule came in with a Score of 44.
Take `COc1ccc(C(=O)ONC(=N)c2cccc(C)c2)cc1OC` [Compound 78]: under setting [1], the half-maximal activity concentration (AC50) is 10 µM. Further, where the note is “Table 12, curve fit”, the “Fit HillSlope” value was 1.7137. Also, the “Fit Zero Activity [%]” value under setting [2] was determined as 9.6566%. In addition, where the note is “Table 12, key not given”, the “Fit Curve Class” value is 2.1. For the same molecule, the Score under setting [3] was determined as 44.
With `CNc1cc([N+](=O)[O-])ccc1OCc1ccccc1` [Compound 79], the AC50 under setting [1] was 4.47 µM. Moreover, the “Fit HillSlope” value (Table 12, curve fit) stood at 1.3437. In addition, the “Fit Zero Activity [%]” value under setting [2] was −0.3646%. The “Fit Curve Class” value (Table 12, key not given) is recorded as 2.1. The Score under setting [3] turned out to be 44.
For `COC(=O)Cc1c(O)ccn(Cc2ccc3c(c2)OCO3)c1=O` [Compound 80], in that order: 10 µM, 1.4163, −6.484%, 2.1 and 44.
For the molecule `O=C(Nc1ccccc1F)c1ccc([N+](=O)[O-])s1` [Compound 81], under setting [1], the AC50 was 12.6 µM. In addition, the “Fit HillSlope” value (Table 12, curve fit) amounted to 4.5045. Moreover, the “Fit Zero Activity [%]” value under setting [2] is given as 3.1931%. Also, the “Fit Curve Class” value (Table 12, key not given) is 2.1. In addition, the Score under setting [3] stood at 44.
In the case of `C/N=C(\S)N1CCC(NC(=O)C(Cc2ccc(F)cc2)NC(C)=O)CC1` (stereo not shown) [Compound 82], the half-maximal activity concentration (AC50) under setting [1] is 3.16 µM. For the same molecule, the “Fit HillSlope” value (Table 12, curve fit) was 1.1341. Besides, the “Fit Infinite Activity [%]” value under setting [4] stood at 89.9991%. Further, under setting [2], the “Fit Zero Activity [%]” value is −6.4745%. For the same molecule, the “Fit Curve Class” value (Table 12, key not given) was found to be 2.1. Moreover, under setting [3], the Score was 44.
Regarding `CCS(=O)(=O)N1CCCC(C(=O)c2ccc(OC)cc2C)C1` (stereo not shown) [Compound 83], the concentration at half-maximal activity (AC50) under setting [1] is 11.2 µM. In addition, the “Fit HillSlope” value (Table 12, curve fit) is listed as 2.0937. The “Fit Zero Activity [%]” value under setting [2] is −12.9886%. Besides, under “Table 12, key not given”, the “Fit Curve Class” value amounted to 2.1. This molecule also registered a Score under setting [3] of 44.
Take `CCCS(=O)(=O)N1CCCC(C(=O)c2cccc(Cl)c2)C1` (stereo not shown) [Compound 84]: under setting [1], the half-maximal activity concentration (AC50) was 6.31 µM. Besides, the “Fit HillSlope” value (Table 12, curve fit) worked out at 1.2221. For the same molecule, the “Fit Zero Activity [%]” value under setting [2] is reported as −7.9639%. The “Fit Curve Class” value (Table 12, key not given) is recorded as 2.1. The Score under setting [3] is reported as 44.
The like results for `CC(C)(C)c1ccc(C(=O)OCC(=O)Nc2sc3c(c2C#N)CCC3)cc1` [Compound 85] were, in that order, 5.01 µM, 1.8617, 3.2331%, 2.1 and 44.
Take `Cc1ccc(C2=C(CC(=O)O)C(=O)CC2)cc1` [Compound 86]: under setting [1], the AC50 is 4.47 µM. For the same molecule, the “Fit HillSlope” value (Table 12, curve fit) was determined as 0.8. Under setting [2], the “Fit Zero Activity [%]” value was determined as 0.4963%. Besides, the “Fit Curve Class” value (Table 12, key not given) is reported as 2.1. In addition, the Score under setting [3] is given as 44.
`CN(C)c1ccnc2sc(C(N)=O)c(N)c12` [Compound 87]: the “Fit HillSlope” value (Table 12, curve fit) was 2.1211. Moreover, the “Fit Zero Activity [%]” value under setting [2] worked out at 21.3502%. For the same molecule, for the setting “Table 12, key not given”, the “Fit Curve Class” value came to 2.2. Moreover, the Score under setting [3] came to 44.
For the molecule `C[C@H]1CNC(=O)c2c(C(=O)Nc3ccc(CNC(=O)OC(C)(C)C)cc3)ncn21` [Compound 88], the AC50 under setting [1] is 8.91 µM. In addition, the “Fit HillSlope” value (Table 12, curve fit) was determined as 1.01. Further, under setting [2], the “Fit Zero Activity [%]” value amounted to 9.418%. Also, the “Fit Curve Class” value (Table 12, key not given) is 2.1. The same molecule registered a Score under setting [3] of 43.
For `CCCN(C(=O)c1ccc(S(=O)(=O)N2CCCC2)cc1)C1CCS(=O)(=O)C1` (stereo not shown) [Compound 89], the half-maximal activity concentration (AC50) under setting [1] was 5.01 µM. Besides, the “Fit HillSlope” value (Table 12, curve fit) worked out at 1.6924. Further, under setting [2], the “Fit Zero Activity [%]” value is reported as −10.8957%. Also, the “Fit Curve Class” value (Table 12, key not given) was determined as 2.2. Moreover, the Score under setting [3] came out at 43.
`CN(CC(=O)Nc1cccc(F)c1)C(=O)c1ccc(-c2ccc(Cl)cc2)o1` [Compound 90]: under setting [1], the half-maximal activity concentration (AC50) was 11.2 µM. Moreover, the “Fit HillSlope” value (Table 12, curve fit) was 4.5045. Further, the “Fit Zero Activity [%]” value under setting [2] was found to be 5.7331%. Besides, for the setting “Table 12, key not given”, the “Fit Curve Class” value is recorded as 2.1. The same molecule showed a Score under setting [3] of 43.
For `COc1ccc(C(=O)N/C(=C/c2cccnc2)C(=O)N2CCN(C)CC2)cc1OC` [Compound 92], in that order: 4.47 µM, 1.6259, 1.7602%, 2.2 and 43.
For `COc1cccc(C(=O)NCC(=O)N2CCC3(CC2)NCCc2[nH]cnc23)c1` [Compound 93], in that order: 11.2 µM, 1.7529, −3.6365%, 2.1 and 43.
For `COc1ccc(-c2csc3ncnc(N4CCN(c5ccccc5[N+](=O)[O-])CC4)c23)cc1` [Compound 94], the “Fit HillSlope” value (Table 12, curve fit) worked out at 4.9549. Besides, the “Fit Infinite Activity [%]” value under setting [4] was found to be 138.031%. Under setting [2], the “Fit Zero Activity [%]” value was determined as 9.6823%. The “Fit Curve Class” value (Table 12, key not given) amounted to 2.1. In addition, under setting [1], the “Fit Log AC50” value was −5. This molecule returned a Score under setting [3] of 43.

These data come from patent publication US10028992B2, “Methods of treating muscular dystrophy” (BOARD OF REGENTS OF THE NEVADA SYSTEM OF HIGHER EDUCATION …, priority 2012, dated 2018).
